Calls of active or inactive are those of the source.
Legend:
[1] = target: 1-acylglycerol-3-phosphate O-acyltransferase ABHD5/Perilipin-5 (Homo sapiens, UniProt Q00G26+Q8WTS1); assay: Luminescence-based biochemical high throughput dose response assay for inhibitors of the interaction of the lipase co-activator protein, abhydrolase domain containing 5 (ABHD5) with perilipin-5 (MLDP; PLIN5) (2K validation set). [Related pubchem assays (depositor defined):AID493035, AID493241]
Perilipin-1/ABHD5 = Perilipin-1/ABHD5 (Homo sapiens, UniProt O60240+Q8WTS1); assay: Luminescence-based biochemical high throughput dose response assay for inhibitors of the interaction of the lipase co-activator protein, abhydrolase domain containing 5 (ABHD5) with perilipin-1 (PLIN1) (2K validation set). [Related pubchem assays (depositor defined):AID493027, AID493057]
Caspase-7 = target: T1, Caspase-7 (Homo sapiens, UniProt P55210); assay: procaspase-7 activators, dose response, counter-screen for procaspase-3 activator project, biochemical, absorbance (AID 489013)
T1 sequence (P55210 whole entry): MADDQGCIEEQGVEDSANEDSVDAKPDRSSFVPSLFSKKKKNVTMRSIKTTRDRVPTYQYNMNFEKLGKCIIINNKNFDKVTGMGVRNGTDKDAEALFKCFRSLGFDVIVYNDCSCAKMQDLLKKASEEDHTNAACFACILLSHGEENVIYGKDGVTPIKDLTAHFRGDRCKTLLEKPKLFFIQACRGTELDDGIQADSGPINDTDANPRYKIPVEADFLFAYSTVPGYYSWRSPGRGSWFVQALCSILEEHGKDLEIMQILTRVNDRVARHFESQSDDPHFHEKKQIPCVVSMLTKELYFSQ

[2] = target: T2, Endoribonuclease toxin MazF (Escherichia coli K-12, UniProt P0AE70); assay: fluorescent RNA oligo signal without MazF, dose response, counter-screen for MazEF activator project, biochemical, fluorescence, single-stranded RNase substrate (AID 588502); type: functional
T2 sequence (P0AE70 whole entry): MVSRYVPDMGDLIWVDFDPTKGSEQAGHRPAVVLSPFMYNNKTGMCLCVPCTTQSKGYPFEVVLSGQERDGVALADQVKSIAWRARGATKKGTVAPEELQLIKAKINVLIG

[3] = target: T2, Endoribonuclease toxin MazF; assay: MazF toxin RNase activators, dose response, biochemical, fluorescence, single-stranded RNA substrate, uHTS hits (AID 588481); type: functional
Caspase-3 = target: T3, Caspase-3 (Homo sapiens, UniProt P42574); assay: procaspase-3 activators, dose response, biochemical, absorbance (AID 489014)
T3 sequence (P42574 whole entry): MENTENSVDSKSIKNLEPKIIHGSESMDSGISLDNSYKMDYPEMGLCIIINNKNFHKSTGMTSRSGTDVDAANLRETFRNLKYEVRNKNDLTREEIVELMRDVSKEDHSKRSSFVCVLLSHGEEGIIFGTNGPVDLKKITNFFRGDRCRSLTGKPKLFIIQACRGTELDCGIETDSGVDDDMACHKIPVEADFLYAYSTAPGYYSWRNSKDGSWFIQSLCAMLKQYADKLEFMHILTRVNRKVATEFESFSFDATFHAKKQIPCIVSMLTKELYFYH

Beta-galactosidase = Beta-galactosidase (Escherichia coli, UniProt Q8VNN2); assay: beta-galactosidase enzyme inhibitors and activators, dose response, artefact control for CCR6 antagonist project, biochemical, E. coli enzyme, set 3 (AID 504712); type: functional
[4] = HepG2 cell cytotoxicity, dose response, cytotoxicity control for non-replicating M. tuberculosis project (AID 489018); type: functional; conditions: Mycobacterium tuberculosis
Tumor necrosis factor = Tumor necrosis factor (Homo sapiens, UniProt P01375); assay: TNFa-triggered NF-kB activation inhibitors, SAR follow-up, cell-based, revised (AID 2337); type: functional
HEK293 [5] = assay: NOD2 signaling inhibitors in MDP-stimulated cells, cell-based, uHTS, luminescence (AID 2001); type: functional; conditions: Homo sapiens
HEK293 [6] = assay: cells; type: functional, cell-based; conditions: Homo sapiens
[7] = target: T4, Nucleotide-binding oligomerization domain-containing protein 1 (Homo sapiens, UniProt Q9Y239); assay: NOD1 signaling inhibitors, SAR follow-up, revised (AID 2333); type: functional
T4 sequence (Q9Y239 whole entry): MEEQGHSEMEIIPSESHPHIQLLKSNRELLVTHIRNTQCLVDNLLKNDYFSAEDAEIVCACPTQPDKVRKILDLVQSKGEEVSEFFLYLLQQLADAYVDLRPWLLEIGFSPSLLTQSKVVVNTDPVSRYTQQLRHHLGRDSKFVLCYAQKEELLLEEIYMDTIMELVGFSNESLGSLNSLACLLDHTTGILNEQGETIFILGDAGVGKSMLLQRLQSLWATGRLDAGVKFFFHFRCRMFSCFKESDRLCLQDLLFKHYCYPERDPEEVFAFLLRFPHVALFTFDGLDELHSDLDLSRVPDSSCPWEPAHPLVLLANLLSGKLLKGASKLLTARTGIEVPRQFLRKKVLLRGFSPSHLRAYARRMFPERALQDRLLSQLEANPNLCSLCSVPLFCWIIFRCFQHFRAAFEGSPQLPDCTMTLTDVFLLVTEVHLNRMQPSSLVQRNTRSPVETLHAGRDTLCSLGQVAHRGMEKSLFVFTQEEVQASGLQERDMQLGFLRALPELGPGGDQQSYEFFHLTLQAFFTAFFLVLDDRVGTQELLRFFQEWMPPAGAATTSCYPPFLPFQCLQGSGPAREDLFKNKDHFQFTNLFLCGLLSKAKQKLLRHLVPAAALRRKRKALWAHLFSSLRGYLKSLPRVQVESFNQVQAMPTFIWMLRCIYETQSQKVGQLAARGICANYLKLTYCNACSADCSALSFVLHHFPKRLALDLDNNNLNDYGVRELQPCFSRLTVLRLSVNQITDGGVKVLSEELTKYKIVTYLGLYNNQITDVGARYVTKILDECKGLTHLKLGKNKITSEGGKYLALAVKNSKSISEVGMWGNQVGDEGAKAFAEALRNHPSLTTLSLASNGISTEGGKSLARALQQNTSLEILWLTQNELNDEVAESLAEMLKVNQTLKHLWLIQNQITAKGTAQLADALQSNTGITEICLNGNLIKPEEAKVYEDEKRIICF

HEK293 [8] = assay: cells; conditions: Homo sapiens
[9] = target: T5, Nucleotide-binding oligomerization domain-containing protein 2 (Homo sapiens, UniProt Q9HC29); assay: NOD2 inhibitors, SAR follow-up, set 2 (AID 2475); type: functional
[10] = THP-1 cell cytotoxicity, dose response, cytotoxicity control for non-replicating M. tuberculosis project (AID 489025); type: functional
[11] = system: Streptococcus sp. 'group A'; assay: growth inhibition of control SK(-) GAS strain, dose response, counter-screen for streptokinase expression inhibitor project, luminescence, kanamycin, BacTiterGlo, confirmation (AID 1900); type: functional, organism-based
[12] = target: T5, Nucleotide-binding oligomerization domain-containing protein 2; assay: PubChem AID 2334; type: functional
Streptokinase A = target: T6, Streptokinase A (Streptococcus pyogenes serotype M1, UniProt P10520); assay: S. pyogenes streptokinase expression inhibitors, potency, dose response, plasminogen activation absorbance, OD405 (AID 1914); type: functional, Streptococcus pyogenes M1 GAS;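 note: secreted streptokinase activity via plasminogen activation per viability signal from cell pellet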
T6 sequence (P10520 whole entry): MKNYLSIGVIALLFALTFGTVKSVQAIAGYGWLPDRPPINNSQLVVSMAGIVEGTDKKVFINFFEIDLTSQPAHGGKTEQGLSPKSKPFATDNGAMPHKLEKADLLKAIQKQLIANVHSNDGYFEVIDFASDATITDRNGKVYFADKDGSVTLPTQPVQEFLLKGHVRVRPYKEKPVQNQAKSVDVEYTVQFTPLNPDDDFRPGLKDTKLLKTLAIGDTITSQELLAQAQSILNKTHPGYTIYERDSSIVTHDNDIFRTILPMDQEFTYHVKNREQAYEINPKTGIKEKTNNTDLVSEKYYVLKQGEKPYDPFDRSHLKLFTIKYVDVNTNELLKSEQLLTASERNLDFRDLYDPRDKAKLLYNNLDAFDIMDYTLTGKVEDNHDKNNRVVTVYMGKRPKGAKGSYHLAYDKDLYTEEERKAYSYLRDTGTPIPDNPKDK

HEK293 [13] = assay: SAR analysis of compounds that are cytotoxic to HEK293 - Set 2. [Related pubchem assays (depositor defined):AID1575, AID1578, AID1849, AID2001, AID2333, AID2334, AID2335, AID2337, AID2800]; type: functional, cell-based; conditions: Homo sapiens
[14] = target: T5, Nucleotide-binding oligomerization domain-containing protein 2; assay: NOD2 signaling inhibitors, cell-based, luminescence, uHTS, HEK293 (AID 1566); type: functional
cells = type: functional
HEK293 [15] = assay: NOD1 signaling inhibitors, primary screen, cell-based, luminescence, uHTS (AID 1578); type: functional; conditions: Homo sapiens
Streptococcus = assay: Group A Streptococcus viability loss, dose response, counter-screen for streptokinase expression inhibitor project, luminescence, BacTiterGlo (AID 1915); type: functional, organism-based;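 note: potency for reduction of bacterial viability or growth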
HEK293 [16] = assay: cells; type: functional, cell-based; conditions: Homo sapiens; remark: listed apart in the source
[17] = Vero E6 cell cytotoxicity, dose response, cytotoxicity control for non-replicating M. tuberculosis project, secondary assay (AID 492998); type: functional, VeroE6; conditions: Vero C1008
HEK293 [18] = assay: cells; type: functional, cell-based; conditions: Homo sapiens; remark: listed apart in the source
Coagulation factor XII = target: T7, Coagulation factor XII (Homo sapiens, UniProt P00748); assay: Factor XIIa Dose Response Confirmation from Single Well HTS. [Related pubchem assays (depositor defined):AID701]; type: functional
T7 sequence (P00748 whole entry): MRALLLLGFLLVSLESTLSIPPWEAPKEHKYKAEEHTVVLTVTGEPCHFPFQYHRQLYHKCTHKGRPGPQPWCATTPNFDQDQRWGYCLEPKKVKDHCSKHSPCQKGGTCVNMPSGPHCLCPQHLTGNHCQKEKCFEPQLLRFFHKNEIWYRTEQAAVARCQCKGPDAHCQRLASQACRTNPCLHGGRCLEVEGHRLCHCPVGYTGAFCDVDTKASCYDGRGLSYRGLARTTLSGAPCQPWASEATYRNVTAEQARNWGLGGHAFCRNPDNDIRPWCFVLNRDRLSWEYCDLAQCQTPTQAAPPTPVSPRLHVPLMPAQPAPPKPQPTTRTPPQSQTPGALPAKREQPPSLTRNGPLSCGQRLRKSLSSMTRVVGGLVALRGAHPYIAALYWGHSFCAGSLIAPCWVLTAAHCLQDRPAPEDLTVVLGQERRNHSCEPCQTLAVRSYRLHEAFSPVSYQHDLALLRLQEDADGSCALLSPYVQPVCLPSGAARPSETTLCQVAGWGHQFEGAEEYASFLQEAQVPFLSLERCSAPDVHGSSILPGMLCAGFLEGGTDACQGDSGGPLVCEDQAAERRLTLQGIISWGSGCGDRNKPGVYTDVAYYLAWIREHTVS

[19] = target: T8, G-protein coupled receptor 55 (Homo sapiens, UniProt Q9Y2T6); assay: GPR55 antagonists blocking LPI-driven arrestin recruitment, primary screen, imaging, U2OS, beta-arrestin-GFP, LPI agonist (AID 2013); type: functional;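 note: antagonist potency measured as reduced agonist-driven arrestin aggregation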
T-cell = assay: inhibitors of CD8+ T cell–vesicle binding, dose response, mouse 2C CD8+ T cells, flow cytometry (AID 485284); type: functional
[20] = target: T9, G-protein coupled receptor 35 (Homo sapiens, UniProt Q9HC97); assay: SAR analysis of Antagonists of the GPR35 Receptor using an Image-Based Assay - Set 5. [Related pubchem assays (depositor defined):AID2058, AID2079]; type: functional
[21] = target: T9, G-protein coupled receptor 35; assay: GPR35 antagonists blocking zaprinast-driven arrestin recruitment, primary screen, imaging, U2OS, beta-arrestin-GFP, zaprinast agonist (AID 2058); type: functional;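 note: antagonist potency meaning inhibition of agonist-induced arrestin redistribution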
[22] = target: T8, G-protein coupled receptor 55; assay: SAR Analysis of Selective Antagonists of GPR55 using an Image-Based Assay - Set 3. [Related pubchem assays (depositor defined):AID2058, AID2079]; type: functional
[23] = target: T9, G-protein coupled receptor 35; assay: SAR Analysis for the identification of Selective Antagonists of ERK1/2 Activity in GPR35-Overexpressing U2OS Cells - Set 2. [Related pubchem assays (depositor defined):AID2058, AID2079]; type: functional, cell-based

T5 sequence (Q9HC29 whole entry, the tested form may be a part): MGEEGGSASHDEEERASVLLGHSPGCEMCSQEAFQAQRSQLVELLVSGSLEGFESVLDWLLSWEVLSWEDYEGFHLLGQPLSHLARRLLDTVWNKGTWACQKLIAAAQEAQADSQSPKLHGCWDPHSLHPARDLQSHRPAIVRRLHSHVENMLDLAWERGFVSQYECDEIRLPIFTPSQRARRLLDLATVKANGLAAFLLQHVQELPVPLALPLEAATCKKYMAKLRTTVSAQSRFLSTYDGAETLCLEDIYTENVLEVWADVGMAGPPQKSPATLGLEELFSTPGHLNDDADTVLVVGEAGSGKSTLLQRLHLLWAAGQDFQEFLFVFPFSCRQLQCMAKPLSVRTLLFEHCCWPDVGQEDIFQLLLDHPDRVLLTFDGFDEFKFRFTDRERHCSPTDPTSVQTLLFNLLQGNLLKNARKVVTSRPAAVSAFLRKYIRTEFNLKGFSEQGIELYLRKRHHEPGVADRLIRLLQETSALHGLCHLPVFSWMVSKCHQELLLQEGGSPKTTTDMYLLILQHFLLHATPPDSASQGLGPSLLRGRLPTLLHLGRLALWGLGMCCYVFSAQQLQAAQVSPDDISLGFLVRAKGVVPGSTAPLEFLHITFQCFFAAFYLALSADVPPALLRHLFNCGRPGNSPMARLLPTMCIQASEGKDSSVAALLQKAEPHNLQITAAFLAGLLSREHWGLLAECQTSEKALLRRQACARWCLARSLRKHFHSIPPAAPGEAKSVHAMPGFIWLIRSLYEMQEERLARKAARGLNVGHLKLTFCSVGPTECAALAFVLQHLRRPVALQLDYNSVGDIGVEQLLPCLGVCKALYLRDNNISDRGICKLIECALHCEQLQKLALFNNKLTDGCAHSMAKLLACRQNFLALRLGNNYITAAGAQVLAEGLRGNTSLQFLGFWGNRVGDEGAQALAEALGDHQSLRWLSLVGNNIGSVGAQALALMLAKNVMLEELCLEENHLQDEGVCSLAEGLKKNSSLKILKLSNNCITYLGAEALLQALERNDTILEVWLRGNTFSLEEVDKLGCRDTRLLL
T9 sequence (Q9HC97 whole entry): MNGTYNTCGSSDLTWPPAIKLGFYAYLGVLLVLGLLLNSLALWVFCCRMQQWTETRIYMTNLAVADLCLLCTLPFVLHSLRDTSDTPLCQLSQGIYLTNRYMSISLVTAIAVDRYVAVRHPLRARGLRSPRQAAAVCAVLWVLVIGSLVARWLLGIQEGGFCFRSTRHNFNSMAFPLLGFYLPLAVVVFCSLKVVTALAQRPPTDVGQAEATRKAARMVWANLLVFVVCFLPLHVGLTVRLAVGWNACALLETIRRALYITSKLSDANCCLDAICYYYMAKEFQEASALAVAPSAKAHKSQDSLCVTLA
T8 sequence (Q9Y2T6 whole entry): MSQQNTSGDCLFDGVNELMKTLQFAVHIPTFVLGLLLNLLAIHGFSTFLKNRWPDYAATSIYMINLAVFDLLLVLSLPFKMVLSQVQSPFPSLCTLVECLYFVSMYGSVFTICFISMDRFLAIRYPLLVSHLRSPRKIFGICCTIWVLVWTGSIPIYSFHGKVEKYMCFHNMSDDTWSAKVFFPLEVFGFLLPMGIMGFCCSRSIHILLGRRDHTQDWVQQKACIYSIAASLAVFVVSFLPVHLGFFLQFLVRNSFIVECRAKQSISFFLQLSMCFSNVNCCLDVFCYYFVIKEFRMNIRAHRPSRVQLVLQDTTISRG
Tumor necrosis factor, sequence (P01375 whole entry): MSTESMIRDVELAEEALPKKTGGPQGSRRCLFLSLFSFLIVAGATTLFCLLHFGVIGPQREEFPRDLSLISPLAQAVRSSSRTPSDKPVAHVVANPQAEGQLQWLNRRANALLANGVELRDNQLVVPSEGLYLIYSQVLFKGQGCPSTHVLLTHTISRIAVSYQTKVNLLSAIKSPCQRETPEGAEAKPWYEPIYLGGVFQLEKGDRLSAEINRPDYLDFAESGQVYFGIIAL
Beta-galactosidase, sequence (Q8VNN2 whole entry): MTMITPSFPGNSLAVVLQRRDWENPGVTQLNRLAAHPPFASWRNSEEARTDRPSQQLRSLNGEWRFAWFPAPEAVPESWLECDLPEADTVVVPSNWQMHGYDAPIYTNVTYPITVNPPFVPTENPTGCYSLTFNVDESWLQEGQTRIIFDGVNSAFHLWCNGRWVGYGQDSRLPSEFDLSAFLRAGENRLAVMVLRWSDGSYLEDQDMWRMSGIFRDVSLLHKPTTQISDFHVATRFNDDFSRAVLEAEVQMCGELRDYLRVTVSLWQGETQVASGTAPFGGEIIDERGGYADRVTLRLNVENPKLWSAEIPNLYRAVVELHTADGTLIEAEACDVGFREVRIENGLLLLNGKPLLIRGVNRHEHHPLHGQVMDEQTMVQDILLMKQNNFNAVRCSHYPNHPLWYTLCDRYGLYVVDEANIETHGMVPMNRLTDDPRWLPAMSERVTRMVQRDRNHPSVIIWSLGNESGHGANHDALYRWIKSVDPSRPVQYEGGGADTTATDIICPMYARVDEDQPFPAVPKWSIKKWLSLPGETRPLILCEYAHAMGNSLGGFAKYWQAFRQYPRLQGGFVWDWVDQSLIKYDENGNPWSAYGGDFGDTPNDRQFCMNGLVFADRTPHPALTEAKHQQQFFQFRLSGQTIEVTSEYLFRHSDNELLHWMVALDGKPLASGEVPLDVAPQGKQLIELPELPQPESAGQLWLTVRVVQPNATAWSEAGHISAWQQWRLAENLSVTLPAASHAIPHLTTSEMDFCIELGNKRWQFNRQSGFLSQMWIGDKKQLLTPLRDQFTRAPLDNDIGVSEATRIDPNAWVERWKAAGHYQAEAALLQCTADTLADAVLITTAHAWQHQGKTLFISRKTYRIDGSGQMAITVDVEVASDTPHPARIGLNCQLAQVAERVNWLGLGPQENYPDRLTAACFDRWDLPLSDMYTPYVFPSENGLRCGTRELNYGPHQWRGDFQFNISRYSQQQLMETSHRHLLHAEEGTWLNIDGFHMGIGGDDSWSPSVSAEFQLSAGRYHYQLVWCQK
Perilipin-1/ABHD5, sequence (Q8WTS1 whole entry, the tested form may be a part): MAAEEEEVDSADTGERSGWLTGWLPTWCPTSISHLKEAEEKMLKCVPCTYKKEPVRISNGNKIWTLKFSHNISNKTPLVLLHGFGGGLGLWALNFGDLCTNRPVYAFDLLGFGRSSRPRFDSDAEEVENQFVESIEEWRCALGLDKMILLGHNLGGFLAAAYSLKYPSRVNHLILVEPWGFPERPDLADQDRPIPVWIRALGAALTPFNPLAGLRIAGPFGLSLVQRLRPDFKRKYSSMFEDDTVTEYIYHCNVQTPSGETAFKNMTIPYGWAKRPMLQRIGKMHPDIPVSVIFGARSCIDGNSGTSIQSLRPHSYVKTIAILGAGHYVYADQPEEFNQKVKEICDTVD
Perilipin-1/ABHD5, sequence (O60240 whole entry, the tested form may be a part): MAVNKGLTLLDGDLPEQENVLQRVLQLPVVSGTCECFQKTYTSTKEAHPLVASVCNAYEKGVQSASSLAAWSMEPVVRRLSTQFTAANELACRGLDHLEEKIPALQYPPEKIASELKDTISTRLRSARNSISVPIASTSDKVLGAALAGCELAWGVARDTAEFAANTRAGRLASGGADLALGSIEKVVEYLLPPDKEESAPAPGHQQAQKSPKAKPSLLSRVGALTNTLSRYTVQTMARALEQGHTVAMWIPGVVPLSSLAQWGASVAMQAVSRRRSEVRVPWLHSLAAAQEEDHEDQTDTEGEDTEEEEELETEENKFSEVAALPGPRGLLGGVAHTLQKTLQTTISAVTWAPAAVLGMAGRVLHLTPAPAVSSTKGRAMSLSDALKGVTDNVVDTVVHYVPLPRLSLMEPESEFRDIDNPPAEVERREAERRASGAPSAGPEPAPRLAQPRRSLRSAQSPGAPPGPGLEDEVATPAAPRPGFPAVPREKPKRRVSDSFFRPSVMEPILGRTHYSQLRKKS
1-acylglycerol-3-phosphate O-acyltransferase ABHD5/Perilipin-5, sequence (Q00G26 whole entry, the tested form may be a part): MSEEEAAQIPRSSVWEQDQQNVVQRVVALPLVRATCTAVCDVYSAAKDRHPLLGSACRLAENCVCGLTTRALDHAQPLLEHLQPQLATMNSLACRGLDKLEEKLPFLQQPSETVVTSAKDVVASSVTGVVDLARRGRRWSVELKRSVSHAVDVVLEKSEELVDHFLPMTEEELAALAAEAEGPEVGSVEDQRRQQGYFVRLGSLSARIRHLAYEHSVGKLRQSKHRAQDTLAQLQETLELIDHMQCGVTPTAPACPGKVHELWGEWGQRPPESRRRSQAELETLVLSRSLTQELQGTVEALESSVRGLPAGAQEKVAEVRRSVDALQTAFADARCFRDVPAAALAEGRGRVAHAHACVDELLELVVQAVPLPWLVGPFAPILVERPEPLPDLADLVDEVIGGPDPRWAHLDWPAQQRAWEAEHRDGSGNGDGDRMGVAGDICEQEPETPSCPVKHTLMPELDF
1-acylglycerol-3-phosphate O-acyltransferase ABHD5/Perilipin-5, sequence (Q8WTS1 whole entry, the tested form may be a part): as the sequence (Q8WTS1 whole entry, the tested form may be a part) above

Compound: O=C(/C=C/c1ccc2c(c1)OCO2)c1ccccn1
- IC50 [1]: 6.96 µM (active)
- IC50 (Perilipin-1/ABHD5): 6.85 µM (active)

Compound: COc1ccccc1Nc1nc2c(C)cccc2cc1C#N
- EC50 (Caspase-7): 9.49 µM (active)
- EC50 [2]: 7.39 µM (active)
- EC50 [3]: > 99 µM (inactive)
- EC50 (Caspase-3): 3.54 µM (active)

Compound: O=C(NC(=S)N1CCN(c2ccc(C(F)(F)F)cc2[N+](=O)[O-])CC1)c1cccs1
- IC50 (Beta-galactosidase): > 66.6 µM (inactive)

Compound: CCC(=O)Nc1nc2ccccc2n1Cc1ccccc1Cl
- CC50 [4]: > 20 µM (active)
- IC50 (Tumor necrosis factor): > 20 µM (inactive)
- IC50 (HEK293 [5]): 3.8 µM (active)
- IC50 (HEK293 [6]): > 20 µM (inactive)
- IC50 [7]: > 20 µM (inactive)
- IC50 (HEK293 [8]): > 20 µM (inactive)
- IC50 [9]: 5.24 µM (active)
- CC50 [10]: 29.7 µM (active)
- EC50 [11]: 6.44 µM (active)
- IC50 [12]: > 20 µM (inactive)
- EC50 (Streptokinase A): > 150 µM (not active)
- IC50 (HEK293 [13]): > 20 µM (inactive)
- EC50 [14]: > 20 µM (inactive)
- IC50 (cells): 0.21 µM (active)
- EC50 (HEK293 [15]): > 20 µM (inactive)
- EC50 (Streptococcus): 105 µM (active)
- IC50 (HEK293 [16]): > 20 µM (inactive)
- CC50 [17]: 10.9 µM (active)
- IC50 (HEK293 [18]): > 20 µM (inactive)

Compound: Cc1cc(NC(=O)C(C)C)ncc1NC(=O)Cc1ccccc1
- IC50 (Coagulation factor XII): > 50 µM (inactive)

Compound: CCSc1nnc2nc3c(c(O)n12)C1(CCCCC1)Cc1ccccc1-3
- IC50 [19]: 8.6 µM (active)

Compound: COc1ccccc1CNC(=O)COc1ccc(C)cc1
- EC50 (T-cell): 22.1 µM (active)

Compound: CNC(=S)N/N=C/c1c(C(=O)OC)cnn1-c1ccc(F)cc1F
- IC50 [20]: 2.49 µM (active)
- IC50 [21]: 1.11 µM (active)
- IC50 [22]: > 32 µM (inactive)
- IC50 [23]: 2.29 µM (active)
